Results from PubChem BioAssay (NCI).
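These data come from cells grown in 96-well plates and exposed to compound for 48 hours at five concentrations. At the GI50, growth is halved. TGI denotes the concentration required for complete inhibition of growth.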

Experiments:
Assay in all cases: inhibition of tumour cell growth, NCI panel, 48 h
[1] = tested on: RPMI-8226 leukemia
[2] = tested on: RXF 393 renal
[3] = tested on: LOX IMVI melanoma
[4] = tested on: MALME-3M melanoma
[5] = tested on: HOP-92 NSCLC
[6] = tested on: TK-10 renal
[7] = tested on: U251 CNS
[8] = tested on: UO-31 renal
[9] = tested on: M14 melanoma
[10] = tested on: SF-295 CNS
[11] = tested on: SF-539 CNS
[12] = tested on: SK-MEL-5 melanoma
[13] = tested on: UACC-257 melanoma
[14] = tested on: K-562 leukemia
[15] = tested on: SK-MEL-28 melanoma
[16] = tested on: SK-MEL-2 melanoma
[17] = tested on: 786-0 renal
[18] = tested on: ACHN renal
[19] = tested on: NCI-H226 lung
[20] = tested on: T-47D breast
[21] = tested on: IGROV1 ovarian
[22] = tested on: HOP-62 NSCLC
[23] = tested on: COLO 205 colon
[24] = tested on: HCT-15 colon
[25] = tested on: HT29 colon
[26] = tested on: HL-60(TB) leukemia
[27] = tested on: SNB-75 CNS
[28] = tested on: NCI/ADR-RES ovarian
[29] = tested on: KM12 colon
[30] = tested on: SN12C renal
[31] = tested on: EKVX NSCLC
[32] = tested on: HS 578T breast
[33] = tested on: MOLT-4 leukemia
[34] = tested on: HCC-2998 colon
[35] = tested on: MDA-MB-435
[36] = tested on: HCT-116 colon
[37] = tested on: DU-145 prostate
[38] = tested on: PC-3 prostate
[39] = tested on: UACC-62 melanoma
[40] = tested on: SNB-19 CNS
[41] = tested on: OVCAR-8 ovarian
[42] = tested on: OVCAR-3 ovarian
[43] = tested on: NCI-H460 lung
[44] = tested on: NCI-H522 lung
[45] = tested on: OVCAR-5 ovarian
[46] = tested on: MDA-MB-231 breast
[47] = tested on: MCF7 breast
[48] = tested on: A549 NSCLC
[49] = tested on: SF-268 CNS
[50] = tested on: CAKI-1 renal
[51] = tested on: CCRF-CEM leukemia
[52] = tested on: SR leukemia
[53] = tested on: A498 renal
[54] = tested on: NCI-H23 lung
[55] = tested on: OVCAR-4 ovarian
[56] = tested on: SW-620 colon
[57] = tested on: SK-OV-3 ovarian
[58] = tested on: BT-549 breast

O=C(Nc1ccc2cc3ccc(NC(=O)N4CCCCCC4)cc3nc2c1)N1CCCCCC1
GI50 [1]: 0.315 µM | TGI [1]: 1.02 µM | GI50 [2]: 0.219 µM | TGI [2]: 0.505 µM | GI50 [3]: 1.42 µM | TGI [3]: 2.75 µM | GI50 [4]: 1.13 µM | TGI [4]: 2.53 µM | GI50 [5]: 1.57 µM | TGI [5]: 3.28 µM | GI50 [6]: 1.92 µM | TGI [6]: 3.46 µM | GI50 [7]: 0.534 µM | TGI [7]: 1.81 µM | GI50 [8]: 1.66 µM | TGI [8]: 3.04 µM | GI50 [9]: 1.32 µM | TGI [9]: 2.78 µM | GI50 [10]: 0.783 µM | TGI [10]: 2.12 µM | GI50 [11]: 0.841 µM | TGI [11]: 2.09 µM | GI50 [12]: 1.48 µM | TGI [12]: 2.81 µM | GI50 [13]: 1.81 µM | TGI [13]: 3.36 µM | GI50 [14]: 0.35 µM | TGI [14]: 1.23 µM | GI50 [15]: 1.32 µM | TGI [15]: 2.67 µM | GI50 [16]: 1.62 µM | TGI [16]: 3.14 µM | GI50 [17]: 0.344 µM | TGI [17]: 1.28 µM

COC1=CCC2=C(CCN(C(=O)C3CC3)C2Cc2ccc(OC)c(O)c2)C1 (stereo not drawn)
TGI [18]: > 100 µM | TGI [1]: > 100 µM | TGI [19]: > 100 µM | TGI [2]: 59.5 µM | TGI [3]: > 100 µM | TGI [20]: 70.9 µM | TGI [21]: > 100 µM | TGI [22]: > 100 µM | TGI [23]: > 100 µM | TGI [4]: > 100 µM | TGI [24]: 59.6 µM | TGI [5]: 96.9 µM | TGI [25]: > 100 µM | TGI [26]: 91.7 µM | TGI [27]: 67.4 µM | TGI [6]: > 100 µM | TGI [7]: > 100 µM | TGI [8]: > 100 µM | TGI [9]: > 100 µM | TGI [28]: 55.4 µM | TGI [10]: > 100 µM | TGI [29]: > 100 µM | TGI [30]: > 100 µM | TGI [31]: > 100 µM | TGI [32]: > 100 µM | TGI [33]: > 100 µM | TGI [34]: > 100 µM | TGI [11]: > 100 µM | TGI [35]: 68.8 µM | TGI [36]: > 100 µM | TGI [37]: > 100 µM | TGI [12]: > 100 µM | TGI [13]: > 100 µM | TGI [38]: > 100 µM | TGI [39]: > 100 µM | TGI [40]: > 100 µM | TGI [41]: > 100 µM | TGI [42]: > 100 µM | TGI [43]: > 100 µM | TGI [44]: 82.4 µM | TGI [45]: > 100 µM | TGI [14]: > 100 µM | TGI [46]: > 100 µM | TGI [47]: > 100 µM | TGI [48]: > 100 µM | TGI [49]: > 100 µM | TGI [50]: > 100 µM | TGI [15]: > 100 µM | TGI [51]: > 100 µM | TGI [16]: > 100 µM | TGI [17]: > 100 µM | TGI [52]: 82.6 µM | TGI [53]: > 100 µM | TGI [54]: 66.1 µM | TGI [55]: > 100 µM | TGI [56]: > 100 µM | TGI [57]: > 100 µM

CCN(CC)CCNC(=O)c1cc(Cl)c(N)cc1OC
GI50 [25]: 20.8 µM | TGI [25]: 38.7 µM | GI50 [27]: 50.2 µM | GI50 [8]: 99.1 µM | GI50 [10]: 25.3 µM | TGI [10]: 44.2 µM | GI50 [12]: 99.6 µM | GI50 [13]: 13.9 µM | TGI [13]: 19.4 µM | GI50 [41]: 28.4 µM | TGI [41]: 46.2 µM | GI50 [43]: 23.5 µM | TGI [43]: 45.8 µM | GI50 [14]: 56.5 µM | GI50 [58]: 82.3 µM | GI50 [53]: 11.1 µM | TGI [53]: 40.1 µM

C=CC(=O)N1CC2(CC(n3nc(-c4ccc(Oc5ccccc5)cc4)c4c(N)ncnc43)C2)C1
GI50 [23]: 1.46 µM | TGI [23]: > 100 µM | GI50 [9]: 2.23 µM | TGI [9]: > 100 µM | GI50 [10]: > 100 µM | TGI [10]: > 100 µM | GI50 [30]: 0.78 µM | TGI [30]: > 100 µM | GI50 [34]: > 100 µM | TGI [34]: > 100 µM | GI50 [13]: 1.97 µM | TGI [13]: > 100 µM | GI50 [39]: 1.72 µM | TGI [39]: > 100 µM | GI50 [43]: > 100 µM | TGI [43]: > 100 µM | GI50 [14]: 1.19 µM | TGI [14]: > 100 µM | GI50 [58]: 1.4 µM | TGI [58]: > 100 µM | GI50 [49]: 1.43 µM | TGI [49]: > 100 µM | GI50 [50]: 1.04 µM | TGI [50]: > 100 µM | GI50 [52]: 6.45 µM | TGI [52]: > 100 µM | GI50 [54]: > 100 µM | TGI [54]: > 100 µM | GI50 [56]: > 100 µM | TGI [56]: > 100 µM

COc1cc(-c2nccc3[nH]c(-c4cccc5[nH]ccc45)nc23)cc(OC)c1OC
GI50 [18]: < 0.01 µM | TGI [18]: 11.6 µM | GI50 [1]: < 0.01 µM | TGI [1]: 2.91 µM | GI50 [19]: 4.06 µM | TGI [19]: 22.5 µM | GI50 [3]: < 0.01 µM | TGI [3]: 5.98 µM | GI50 [20]: 4.94 µM | TGI [20]: 27.3 µM | GI50 [21]: < 0.01 µM | TGI [21]: 23.2 µM | GI50 [23]: < 0.01 µM | TGI [23]: < 0.01 µM | GI50 [4]: 2.71 µM | TGI [4]: 15.9 µM | GI50 [24]: < 0.01 µM | TGI [24]: 12 µM | GI50 [5]: < 0.01 µM | TGI [5]: 19 µM | GI50 [25]: < 0.01 µM | TGI [25]: 1.26 µM | GI50 [26]: < 0.01 µM | TGI [26]: < 0.01 µM | GI50 [27]: < 0.01 µM | TGI [27]: 16.5 µM | GI50 [6]: 12.1 µM | TGI [6]: 24.8 µM | GI50 [7]: < 0.01 µM | TGI [7]: 13 µM | GI50 [8]: 0.124 µM | TGI [8]: 16.2 µM | GI50 [9]: < 0.01 µM | TGI [9]: 10.1 µM | GI50 [28]: < 0.01 µM | TGI [28]: 18.1 µM | GI50 [29]: < 0.01 µM | TGI [29]: 13.4 µM | GI50 [30]: < 0.01 µM | TGI [30]: 18.1 µM | GI50 [31]: 0.0186 µM | TGI [31]: 22 µM | GI50 [32]: < 0.01 µM | TGI [32]: 23.9 µM | GI50 [33]: < 0.01 µM | TGI [33]: 13.2 µM | GI50 [34]: < 0.01 µM | TGI [34]: 2.28 µM | GI50 [11]: < 0.01 µM | TGI [11]: 0.0139 µM | GI50 [35]: < 0.01 µM | TGI [35]: < 0.01 µM | GI50 [36]: < 0.01 µM | TGI [36]: 0.0202 µM | GI50 [37]: < 0.01 µM | TGI [37]: 15.6 µM | GI50 [12]: < 0.01 µM | TGI [12]: 0.0108 µM | GI50 [38]: < 0.01 µM | TGI [38]: 15.7 µM | GI50 [39]: < 0.01 µM | TGI [39]: 20.9 µM | GI50 [40]: < 0.01 µM | TGI [40]: 20.6 µM | GI50 [41]: < 0.01 µM | TGI [41]: 14.1 µM | GI50 [42]: < 0.01 µM | TGI [42]: 11 µM | GI50 [43]: < 0.01 µM | TGI [43]: 1.11 µM | GI50 [45]: 3.89 µM | TGI [45]: 27.6 µM | GI50 [46]: < 0.01 µM | TGI [46]: 17.1 µM | GI50 [47]: < 0.01 µM | TGI [47]: 14.4 µM | GI50 [48]: < 0.01 µM | TGI [48]: 1.78 µM | GI50 [49]: < 0.01 µM | TGI [49]: 16 µM | GI50 [50]: < 0.01 µM | TGI [50]: 14.6 µM | GI50 [15]: 0.0347 µM | TGI [15]: 15.3 µM | GI50 [51]: < 0.01 µM | TGI [51]: 12 µM | GI50 [16]: < 0.01 µM | TGI [16]: 23.5 µM | GI50 [17]: < 0.01 µM | TGI [17]: 2.92 µM | GI50 [52]: < 0.01 µM | TGI [52]: 10.4 µM | GI50 [54]: < 0.01 µM | TGI [54]: 19.1 µM | GI50 [55]: < 0.01 µM | TGI [55]: 16.2 µM | GI50 [56]: < 0.01 µM | TGI [56]: 5.13 µM | GI50 [57]: < 0.01 µM | TGI [57]: 14.8 µM
